Assays:
[1] = biological target: T1, Ephrin type-B receptor 1 (Homo sapiens) (UniProt P54762)
T1 sequence (whole entry): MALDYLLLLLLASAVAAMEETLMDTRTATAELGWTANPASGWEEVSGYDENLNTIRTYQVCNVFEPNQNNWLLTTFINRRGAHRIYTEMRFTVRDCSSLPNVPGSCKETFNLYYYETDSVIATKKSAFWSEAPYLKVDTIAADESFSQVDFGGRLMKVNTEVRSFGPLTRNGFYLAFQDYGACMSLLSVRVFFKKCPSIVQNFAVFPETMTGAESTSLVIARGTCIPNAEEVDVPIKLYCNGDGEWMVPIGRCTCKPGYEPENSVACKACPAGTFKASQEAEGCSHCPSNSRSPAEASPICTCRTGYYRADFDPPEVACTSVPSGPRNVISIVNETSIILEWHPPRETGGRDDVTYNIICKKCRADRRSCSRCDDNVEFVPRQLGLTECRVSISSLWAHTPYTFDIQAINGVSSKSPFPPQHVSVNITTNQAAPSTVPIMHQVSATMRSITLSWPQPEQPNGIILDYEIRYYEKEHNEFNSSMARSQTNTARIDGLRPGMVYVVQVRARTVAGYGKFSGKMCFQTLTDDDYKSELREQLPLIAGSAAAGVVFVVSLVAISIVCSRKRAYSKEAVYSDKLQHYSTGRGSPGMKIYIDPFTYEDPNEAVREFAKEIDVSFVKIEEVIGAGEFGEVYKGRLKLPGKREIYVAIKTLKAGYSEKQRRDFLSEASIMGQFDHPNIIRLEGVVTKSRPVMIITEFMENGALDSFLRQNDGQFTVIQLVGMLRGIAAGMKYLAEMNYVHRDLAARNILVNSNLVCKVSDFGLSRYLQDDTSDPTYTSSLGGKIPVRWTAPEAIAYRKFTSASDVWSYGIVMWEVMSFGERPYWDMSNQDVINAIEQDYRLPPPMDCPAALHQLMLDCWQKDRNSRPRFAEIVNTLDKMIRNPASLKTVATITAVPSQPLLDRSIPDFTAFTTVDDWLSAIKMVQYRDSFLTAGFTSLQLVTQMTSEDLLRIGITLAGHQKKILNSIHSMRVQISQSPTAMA

[2] = biological target: Activated CDC42 kinase 1 (Homo sapiens) (UniProt Q07912)
[3] = biological target: Serine/threonine-protein kinase PLK1 (Homo sapiens) (UniProt P53350)
[4] = biological target: Phosphatidylinositol 3-kinase catalytic subunit type 3 (Homo sapiens) (UniProt Q8NEB9)
[5] = system: Receptor-type tyrosine-protein kinase FLT3 (Homo sapiens), P36888 [N841I]
[6] = biological target: Sigma non-opioid intracellular receptor 1 (Homo sapiens, UniProt Q99720); details: Compound concentration 10.0 uM
[7] = biological target: T2, Serine/threonine-protein kinase D3 (Homo sapiens) (UniProt O94806)
T2 sequence (whole entry): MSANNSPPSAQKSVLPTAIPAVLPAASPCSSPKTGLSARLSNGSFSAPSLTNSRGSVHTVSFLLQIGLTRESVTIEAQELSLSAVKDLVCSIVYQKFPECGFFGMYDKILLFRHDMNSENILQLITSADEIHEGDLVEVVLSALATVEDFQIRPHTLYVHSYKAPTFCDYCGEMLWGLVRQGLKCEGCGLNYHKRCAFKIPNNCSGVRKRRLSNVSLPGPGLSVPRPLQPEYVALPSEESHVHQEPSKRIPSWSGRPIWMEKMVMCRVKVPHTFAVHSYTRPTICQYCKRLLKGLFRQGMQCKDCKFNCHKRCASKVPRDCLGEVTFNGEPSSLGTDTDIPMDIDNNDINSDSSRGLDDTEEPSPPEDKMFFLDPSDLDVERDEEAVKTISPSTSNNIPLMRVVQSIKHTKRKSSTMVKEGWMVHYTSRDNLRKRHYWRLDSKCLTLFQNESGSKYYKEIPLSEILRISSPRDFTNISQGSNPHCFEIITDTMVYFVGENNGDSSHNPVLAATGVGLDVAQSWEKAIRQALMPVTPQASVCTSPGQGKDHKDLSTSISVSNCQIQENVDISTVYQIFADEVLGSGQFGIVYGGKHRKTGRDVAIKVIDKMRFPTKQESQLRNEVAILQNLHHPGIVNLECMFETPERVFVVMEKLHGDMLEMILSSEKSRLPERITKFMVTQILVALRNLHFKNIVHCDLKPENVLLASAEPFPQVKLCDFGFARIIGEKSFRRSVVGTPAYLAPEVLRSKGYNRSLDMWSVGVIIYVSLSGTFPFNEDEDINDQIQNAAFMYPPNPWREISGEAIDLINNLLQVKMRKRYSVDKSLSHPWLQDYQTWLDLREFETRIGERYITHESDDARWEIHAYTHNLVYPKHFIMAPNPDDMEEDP

[8] = biological target: T3, 5-hydroxytryptamine receptor 2C (Homo sapiens) (UniProt P28335); details: Compound concentration 10.0 uM
T3 sequence (whole entry): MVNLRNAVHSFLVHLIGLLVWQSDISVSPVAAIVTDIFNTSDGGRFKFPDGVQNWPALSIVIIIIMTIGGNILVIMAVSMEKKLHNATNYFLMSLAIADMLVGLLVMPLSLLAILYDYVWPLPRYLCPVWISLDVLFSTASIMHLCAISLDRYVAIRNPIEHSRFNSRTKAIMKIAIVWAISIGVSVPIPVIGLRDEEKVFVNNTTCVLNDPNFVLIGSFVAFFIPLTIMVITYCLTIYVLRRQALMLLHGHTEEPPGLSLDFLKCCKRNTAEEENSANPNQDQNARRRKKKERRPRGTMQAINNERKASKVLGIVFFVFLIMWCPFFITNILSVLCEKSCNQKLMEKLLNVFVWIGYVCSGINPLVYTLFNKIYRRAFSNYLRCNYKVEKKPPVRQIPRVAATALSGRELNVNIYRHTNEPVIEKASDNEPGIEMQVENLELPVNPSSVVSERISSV

[9] = biological target: MAP kinase-interacting serine/threonine-protein kinase 1 (Homo sapiens) (UniProt Q9BUB5)
[10] = biological target: Rhodopsin kinase GRK1 (Homo sapiens) (UniProt Q15835)
[11] = biological target: Hepatocyte growth factor receptor (Homo sapiens) (UniProt P08581)
[12] = biological target: Mitogen-activated protein kinase kinase kinase 12 (Homo sapiens) (UniProt Q12852)
[13] = biological target: Wee1-like protein kinase 2 (Homo sapiens) (UniProt P0C1S8)
[14] = biological target: Fibroblast growth factor receptor 2 (Homo sapiens) (UniProt P21802)
[15] = Compound concentration 1000.0 nM
[16] = Compound concentration 100.0 nM

Rhodopsin kinase GRK1 (Homo sapiens), sequence (Q15835 whole entry): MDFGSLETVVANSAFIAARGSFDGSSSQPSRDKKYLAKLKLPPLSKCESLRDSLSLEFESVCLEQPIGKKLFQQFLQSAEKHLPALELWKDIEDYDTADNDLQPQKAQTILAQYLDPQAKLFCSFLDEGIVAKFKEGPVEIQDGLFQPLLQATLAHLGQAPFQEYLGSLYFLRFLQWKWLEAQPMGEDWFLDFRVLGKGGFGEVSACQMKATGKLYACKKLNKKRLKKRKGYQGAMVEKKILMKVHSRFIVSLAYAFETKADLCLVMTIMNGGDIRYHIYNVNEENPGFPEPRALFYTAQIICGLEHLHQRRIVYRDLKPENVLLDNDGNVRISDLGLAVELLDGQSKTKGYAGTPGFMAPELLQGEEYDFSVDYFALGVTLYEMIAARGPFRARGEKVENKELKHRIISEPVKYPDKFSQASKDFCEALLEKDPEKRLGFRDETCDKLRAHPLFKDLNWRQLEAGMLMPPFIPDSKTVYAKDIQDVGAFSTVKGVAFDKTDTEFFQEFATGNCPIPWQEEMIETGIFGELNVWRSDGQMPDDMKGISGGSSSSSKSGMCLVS
Hepatocyte growth factor receptor (Homo sapiens), sequence (P08581 whole entry): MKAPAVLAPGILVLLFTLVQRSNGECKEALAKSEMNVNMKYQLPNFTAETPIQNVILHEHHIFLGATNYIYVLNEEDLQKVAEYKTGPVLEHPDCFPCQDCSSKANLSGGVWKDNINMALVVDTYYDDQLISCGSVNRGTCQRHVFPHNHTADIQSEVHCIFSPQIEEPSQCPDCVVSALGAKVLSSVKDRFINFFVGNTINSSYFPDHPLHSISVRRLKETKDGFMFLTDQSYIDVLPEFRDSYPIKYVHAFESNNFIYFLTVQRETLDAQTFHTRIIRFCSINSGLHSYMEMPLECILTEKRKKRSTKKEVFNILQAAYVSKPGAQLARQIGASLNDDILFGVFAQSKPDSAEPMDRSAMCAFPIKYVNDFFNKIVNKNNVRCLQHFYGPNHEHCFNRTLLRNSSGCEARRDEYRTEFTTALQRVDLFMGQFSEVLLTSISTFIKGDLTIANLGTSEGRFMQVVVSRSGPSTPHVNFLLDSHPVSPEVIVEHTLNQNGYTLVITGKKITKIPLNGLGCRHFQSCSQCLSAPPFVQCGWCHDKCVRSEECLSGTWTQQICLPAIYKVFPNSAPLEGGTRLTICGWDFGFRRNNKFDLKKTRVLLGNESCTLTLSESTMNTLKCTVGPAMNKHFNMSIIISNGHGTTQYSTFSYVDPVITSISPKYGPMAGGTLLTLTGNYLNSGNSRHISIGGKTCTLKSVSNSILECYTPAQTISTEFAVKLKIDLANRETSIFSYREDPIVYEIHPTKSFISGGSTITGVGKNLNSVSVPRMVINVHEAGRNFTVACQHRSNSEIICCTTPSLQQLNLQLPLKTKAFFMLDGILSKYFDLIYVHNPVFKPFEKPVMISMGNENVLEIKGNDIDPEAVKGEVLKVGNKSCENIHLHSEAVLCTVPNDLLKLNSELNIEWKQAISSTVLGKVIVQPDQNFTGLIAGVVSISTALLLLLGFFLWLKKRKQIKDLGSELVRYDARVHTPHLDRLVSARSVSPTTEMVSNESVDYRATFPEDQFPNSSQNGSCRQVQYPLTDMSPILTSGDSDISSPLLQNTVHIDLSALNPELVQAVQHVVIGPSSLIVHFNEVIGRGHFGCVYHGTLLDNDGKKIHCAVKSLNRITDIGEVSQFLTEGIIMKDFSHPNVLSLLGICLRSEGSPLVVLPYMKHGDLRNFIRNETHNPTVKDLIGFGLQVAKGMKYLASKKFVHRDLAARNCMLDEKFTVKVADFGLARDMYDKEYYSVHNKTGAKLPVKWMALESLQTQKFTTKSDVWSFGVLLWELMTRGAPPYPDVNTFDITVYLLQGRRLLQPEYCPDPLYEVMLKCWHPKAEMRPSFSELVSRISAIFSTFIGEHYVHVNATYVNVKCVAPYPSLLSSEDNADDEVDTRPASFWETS
Serine/threonine-protein kinase PLK1 (Homo sapiens), sequence (P53350 whole entry): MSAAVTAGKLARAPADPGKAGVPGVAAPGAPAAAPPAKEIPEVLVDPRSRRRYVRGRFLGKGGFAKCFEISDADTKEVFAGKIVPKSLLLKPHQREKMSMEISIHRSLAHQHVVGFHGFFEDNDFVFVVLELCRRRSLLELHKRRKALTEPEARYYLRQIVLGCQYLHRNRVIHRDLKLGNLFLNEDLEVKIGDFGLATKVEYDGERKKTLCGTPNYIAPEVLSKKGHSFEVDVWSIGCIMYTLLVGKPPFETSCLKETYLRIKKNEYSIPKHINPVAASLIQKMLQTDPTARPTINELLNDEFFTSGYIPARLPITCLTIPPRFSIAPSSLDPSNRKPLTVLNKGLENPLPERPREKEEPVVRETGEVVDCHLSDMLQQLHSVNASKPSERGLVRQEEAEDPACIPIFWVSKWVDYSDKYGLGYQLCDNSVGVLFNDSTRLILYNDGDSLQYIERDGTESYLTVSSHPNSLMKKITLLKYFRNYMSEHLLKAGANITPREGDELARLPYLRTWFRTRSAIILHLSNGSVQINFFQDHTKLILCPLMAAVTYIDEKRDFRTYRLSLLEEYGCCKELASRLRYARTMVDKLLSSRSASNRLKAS
Wee1-like protein kinase 2 (Homo sapiens), sequence (P0C1S8 whole entry, looked up): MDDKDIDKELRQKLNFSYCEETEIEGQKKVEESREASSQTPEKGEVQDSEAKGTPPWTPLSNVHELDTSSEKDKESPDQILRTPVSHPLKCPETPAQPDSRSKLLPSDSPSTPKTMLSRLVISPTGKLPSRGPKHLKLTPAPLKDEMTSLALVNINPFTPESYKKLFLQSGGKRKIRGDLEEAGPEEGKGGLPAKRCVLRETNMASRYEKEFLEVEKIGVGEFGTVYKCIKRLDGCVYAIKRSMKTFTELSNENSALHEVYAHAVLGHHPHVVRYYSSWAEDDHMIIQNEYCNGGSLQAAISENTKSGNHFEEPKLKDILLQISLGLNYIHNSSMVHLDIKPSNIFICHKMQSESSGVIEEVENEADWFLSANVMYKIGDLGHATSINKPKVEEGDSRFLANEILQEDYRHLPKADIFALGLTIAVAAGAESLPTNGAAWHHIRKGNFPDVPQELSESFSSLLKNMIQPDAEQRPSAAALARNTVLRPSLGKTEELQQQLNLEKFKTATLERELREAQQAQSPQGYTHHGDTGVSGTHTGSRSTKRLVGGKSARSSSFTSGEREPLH
MAP kinase-interacting serine/threonine-protein kinase 1 (Homo sapiens), sequence (Q9BUB5 whole entry, looked up): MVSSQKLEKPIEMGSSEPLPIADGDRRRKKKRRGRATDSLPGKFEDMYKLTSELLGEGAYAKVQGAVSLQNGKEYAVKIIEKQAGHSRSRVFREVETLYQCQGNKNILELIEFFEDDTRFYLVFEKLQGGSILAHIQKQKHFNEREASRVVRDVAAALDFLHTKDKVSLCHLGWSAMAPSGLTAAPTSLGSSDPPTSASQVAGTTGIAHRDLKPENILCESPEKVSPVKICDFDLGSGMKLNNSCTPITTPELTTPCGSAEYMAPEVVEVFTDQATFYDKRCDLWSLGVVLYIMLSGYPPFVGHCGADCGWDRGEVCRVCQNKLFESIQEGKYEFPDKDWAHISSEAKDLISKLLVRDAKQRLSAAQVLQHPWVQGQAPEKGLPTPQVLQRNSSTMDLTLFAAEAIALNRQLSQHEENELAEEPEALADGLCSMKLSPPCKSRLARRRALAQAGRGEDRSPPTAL
Mitogen-activated protein kinase kinase kinase 12 (Homo sapiens), sequence (Q12852 whole entry): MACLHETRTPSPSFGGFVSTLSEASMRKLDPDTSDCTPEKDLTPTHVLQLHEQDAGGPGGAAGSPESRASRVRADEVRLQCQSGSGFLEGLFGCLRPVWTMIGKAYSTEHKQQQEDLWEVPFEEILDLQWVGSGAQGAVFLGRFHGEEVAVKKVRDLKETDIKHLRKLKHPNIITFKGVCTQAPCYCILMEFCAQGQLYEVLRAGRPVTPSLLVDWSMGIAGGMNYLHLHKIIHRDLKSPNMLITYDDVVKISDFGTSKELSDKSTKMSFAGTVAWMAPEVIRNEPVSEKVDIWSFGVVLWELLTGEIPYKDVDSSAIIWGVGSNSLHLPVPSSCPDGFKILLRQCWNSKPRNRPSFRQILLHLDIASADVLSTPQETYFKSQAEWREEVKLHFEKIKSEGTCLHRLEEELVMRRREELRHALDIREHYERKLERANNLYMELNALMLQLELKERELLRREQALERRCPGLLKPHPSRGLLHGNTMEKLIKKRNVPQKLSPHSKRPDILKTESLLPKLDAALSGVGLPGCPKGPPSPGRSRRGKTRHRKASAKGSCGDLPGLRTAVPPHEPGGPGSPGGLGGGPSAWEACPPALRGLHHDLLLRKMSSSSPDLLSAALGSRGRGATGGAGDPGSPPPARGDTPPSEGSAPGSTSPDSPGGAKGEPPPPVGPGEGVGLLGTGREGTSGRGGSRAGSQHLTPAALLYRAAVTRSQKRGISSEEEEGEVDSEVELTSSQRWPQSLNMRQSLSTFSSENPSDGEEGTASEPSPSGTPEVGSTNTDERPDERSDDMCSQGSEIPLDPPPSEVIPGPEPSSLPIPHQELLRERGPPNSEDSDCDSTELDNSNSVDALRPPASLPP
Sigma non-opioid intracellular receptor 1, sequence (Q99720 whole entry): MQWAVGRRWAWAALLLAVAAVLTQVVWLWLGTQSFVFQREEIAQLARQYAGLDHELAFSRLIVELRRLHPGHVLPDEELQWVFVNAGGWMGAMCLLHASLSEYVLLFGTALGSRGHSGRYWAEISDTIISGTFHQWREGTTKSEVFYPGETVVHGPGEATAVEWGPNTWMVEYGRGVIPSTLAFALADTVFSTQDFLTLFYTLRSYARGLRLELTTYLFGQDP

Q: What does the source list for `C[C@@H]1CN(c2cc(-c3nn(C)c4ccc(OC5(C)CC5)cc34)ncn2)C[C@H](C)O1` [MLi-2-NC]?
A: residual activity [1, 15]: 99%; residual activity [2, 15]: 96%; residual activity [3, 15]: 74%; residual activity [4, 15]: 86%; residual activity [5, 15]: 85%; inhibition [6]: 58.2%; residual activity [7, 15]: 64%; inhibition [8]: 18.7%; residual activity [9, 15]: 79%; residual activity [10, 15]: 100%; residual activity [11, 15]: 100%; residual activity [12, 15]: 61%; residual activity [13, 15]: 96%; residual activity [14, 15]: 100%

Q: Which residual activity [1, 16] does the source give for `C[C@@H]1CN(c2cc(-c3n[nH]c4ccc(OC5(C)CC5)cc34)ncn2)C[C@H](C)O1` [MLi-2] here?
A: 83%

Q: And the residual activity [2, 16]?
A: 79%

Q: What about the residual activity [3, 16] of the same compound?
A: 68%

Q: What about the residual activity [4, 16] of the same compound?
A: 100%

Q: And the residual activity [5, 16]?
A: 46%

Q: And the inhibition [6]?
A: 35.9%

Q: What about the residual activity [7, 16] of the same compound?
A: 82%

Q: What about the inhibition [8] of the same compound?
A: 7.65%

Q: What about the residual activity [9, 16] of the same compound?
A: 67%

Q: What about the residual activity [10, 16] of the same compound?
A: 83%

Q: What about the residual activity [11, 16] of the same compound?
A: 100%

Q: And the residual activity [12, 16]?
A: 82%

Q: And the residual activity [13, 16]?
A: 100%

Q: What about the residual activity [14, 16] of the same compound?
A: 96%
